Source: ChEMBL document CHEMBL1772987, “Development of amidine-based sphingosine kinase 1 nanomolar inhibitors and reduction of sphingosine 1-phosphate in human leukemia cells” (J Med Chem, 2011)

Key:
[1] = biological target: T1, Sphingosine kinase 2 (Mus musculus, UniProt Q9JIA7); test: Inhibition of mouse recombinant SPHK2 expressed in baculovirus-infected Sf9 cells
T1 sequence (Q9JIA7 whole entry): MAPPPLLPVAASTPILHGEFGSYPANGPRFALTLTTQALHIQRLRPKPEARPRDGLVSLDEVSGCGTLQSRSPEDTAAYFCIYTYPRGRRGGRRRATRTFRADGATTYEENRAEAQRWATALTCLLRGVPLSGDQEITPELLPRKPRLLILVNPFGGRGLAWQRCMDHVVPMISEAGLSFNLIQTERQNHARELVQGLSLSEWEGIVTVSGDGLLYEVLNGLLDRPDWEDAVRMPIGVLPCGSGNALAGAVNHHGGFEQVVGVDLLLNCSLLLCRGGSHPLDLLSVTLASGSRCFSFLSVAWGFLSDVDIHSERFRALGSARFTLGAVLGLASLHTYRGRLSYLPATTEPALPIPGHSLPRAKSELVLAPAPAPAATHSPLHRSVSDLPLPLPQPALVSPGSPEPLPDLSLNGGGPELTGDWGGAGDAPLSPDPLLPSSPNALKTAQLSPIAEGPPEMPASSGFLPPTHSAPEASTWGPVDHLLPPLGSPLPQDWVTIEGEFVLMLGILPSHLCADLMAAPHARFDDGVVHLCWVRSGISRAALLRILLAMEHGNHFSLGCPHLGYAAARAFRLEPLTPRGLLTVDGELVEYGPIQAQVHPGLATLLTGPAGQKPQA

[2] = biological target: T2, Sphingosine kinase 1 (Homo sapiens, UniProt Q9NYA1); test: biochemical
Description: (§1) Inhibition of human recombinant SPHK1 expressed in baculovirus-infected Sf9 cells

[3] = biological target: Sphingosine kinase 2 (Mus musculus) (UniProt Q9JIA7); test: Inhibition of SPHK2
[4] = biological target: T2, Sphingosine kinase 1
Description: as §1

T2 sequence (Q9NYA1 whole entry): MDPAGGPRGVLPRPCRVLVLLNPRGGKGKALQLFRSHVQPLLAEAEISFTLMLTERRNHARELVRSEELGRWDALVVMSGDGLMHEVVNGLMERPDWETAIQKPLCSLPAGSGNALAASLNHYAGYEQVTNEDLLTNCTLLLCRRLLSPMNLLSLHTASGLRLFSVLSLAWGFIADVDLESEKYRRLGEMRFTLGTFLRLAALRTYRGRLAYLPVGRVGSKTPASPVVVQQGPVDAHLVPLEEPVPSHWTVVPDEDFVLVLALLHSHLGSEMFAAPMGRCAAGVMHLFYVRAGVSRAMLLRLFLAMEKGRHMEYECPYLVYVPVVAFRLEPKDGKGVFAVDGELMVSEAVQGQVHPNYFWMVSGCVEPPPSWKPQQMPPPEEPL

Ki [1] | Ki [2] | Ki [3] | Ki [4] | Compound
38 µM | 5 µM | – | – | N=C(N)C1(C(=O)Nc2ccc(CCCCCCCOCc3ccccc3)cc2)CC1
25 µM | 0.45 µM | – | – | N=C(N)C1(C(=O)NCCCCCCCCCCOCC2CCCC2)CC1
31 µM | – | 31 µM | – | CCCCCCCCc1ccc(NC(=O)[C@@H](N)CCO)cc1
40 µM | 1.3 µM | – | – | CCCCOCCCCCCCc1ccc(C(=O)NC2(C(=N)N)CC2)cc1
26 µM | – | – | 0.11 µM | N=C(N)C1(C(=O)NCCCCCCCCCCOCC2CCCCC2)CC1
7.5 µM | 6 µM | – | – | CCCCCCCCCCCCCCNC(=O)C1(C(=N)N)CC1
> 100 µM | 9 µM | – | – | CCCCCCCCCCCCCCCCCCNC(=O)C1(C(=N)N)CC1
10 µM | 4 µM | – | – | CCCCCCCCCCCOc1ccc(C(=O)NC2(C(=N)N)CC2)cc1
33 µM | – | – | – | Oc1ccc(Nc2nc(-c3ccc(Cl)cc3)cs2)cc1
4.6 µM | 1.5 µM | – | – | N=C(N)C1(C(=O)Nc2ccc(CCCCCCCOCC34CC5CC(CC(C5)C3)C4)cc2)CC1
15 µM | 0.13 µM | – | – | N=C(N)C1(NC(=O)c2ccc(CCCCCCCOCC3CCCCC3)cc2)CC1
7 µM | 0.24 µM | – | – | N=C(N)C1(C(=O)Nc2ccc(CCCCCCCOCC3CCCCC3)cc2)CC1
5 µM | 1.6 µM | – | – | CCCCCCCCCCCCc1ccc(C(=O)NC2(C(=N)N)CCC2)cc1
> 10 µM | 1.3 µM | – | – | N=C(N)C1(C(=O)Nc2ccc(CCCCCCCCc3ccccc3)cc2)CC1
20 µM | 2 µM | – | – | N=C(N)[C@@H]1CCCN1C(=O)c1ccc(-c2nc(-c3cccc(CCC4CCCCC4)c3)c[nH]2)cc1
> 10 µM | 0.5 µM | – | – | N=C(N)C1(C(=O)Nc2ccc(CCCCCCCCCc3ccccc3)cc2)CC1
12 µM | 0.39 µM | – | – | N=C(N)C1(C(=O)Nc2ccc(CCCCCCOCC3CCCCC3)cc2)CC1
18 µM | 0.17 µM | – | – | N=C(N)C1(NC(=O)c2ccc(CCCCCCCOCC3CCCC3)cc2)CC1
4.2 µM | – | – | 0.047 µM | N=C(N)[C@@H]1CCCN1C(=O)c1ccc(-c2nc(-c3cccc(CCC4CCCCC4)c3)co2)cc1
8 µM | 0.13 µM | – | – | N=C(N)[C@@H]1CCCN1C(=O)CCCCCCCCCCOCC1CCCCC1
3 µM | – | – | 0.075 µM | N=C(N)[C@@H]1CCCN1C(=O)c1ccc(CCCCCCCOCC2CCCCC2)cc1
5.3 µM | 0.099 µM | – | – | N=C(N)[C@@H]1CCCN1C(=O)c1ccc(CCCCCCCCCC2CCCCC2)cc1
6 µM | 0.11 µM | – | – | N=C(N)[C@@H]1CCCN1C(=O)c1ccc(-c2nc(-c3cccc(CCC4CCCCC4)c3)cs2)cc1
> 100 µM | 5.4 µM | – | – | CCCCCCCCCCCCCCCCNC(=O)C1(C(=N)N)CC1
12 µM | 0.095 µM | – | – | N=C(N)C1(NC(=O)CCCCCCCCCCOCC2CCCCC2)CC1
> 20 µM | 0.8 µM | – | – | N=C(N)C1(C(=O)Nc2ccc(CCCCCCCCOCC3CCCCC3)cc2)CC1
